PubChem BioAssay AID2060503 (Molecular Pharmacology Branch, DTP, NCI, 2025)

Tested on: 817829-284-R-J1-PDC complex spheroids, viability
Assay: Anticancer human tumor 817829-284-R-J1-PDC patient-derived colon adenocarcinoma cell line growth inhibition [GQUAD]
Settings: for IC50: curve of first compound; for viability, T/C: stronger effect = lower value
Summary of the method: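 Viability of tumor cells grown as complex spheroids with endothelial and stromal cells, exposed to drug combinations. Top concentration at or near clinical Cmax (else 10 microM), diluted in half-log increments.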

[1] = second compound 0.0316 µM, first compound 0.0316 µM
[2] = second compound 0.0316 µM, first compound 0.1 µM
[3] = second compound 0.0316 µM, first compound 0.316 µM
[4] = second compound 0.0316 µM, first compound 1 µM
[5] = second compound 0.0316 µM, first compound 3.16 µM
[6] = second compound 0.0316 µM, first compound 10 µM
[7] = second compound 0.1 µM, first compound 0.0316 µM
[8] = second compound 0.1 µM, first compound 0.1 µM
[9] = second compound 0.1 µM, first compound 0.316 µM
[10] = second compound 0.1 µM, first compound 1 µM
[11] = second compound 0.1 µM, first compound 3.16 µM
[12] = second compound 0.1 µM, first compound 10 µM
[13] = second compound 0.316 µM, first compound 0.0316 µM
[14] = second compound 0.316 µM, first compound 0.1 µM
[15] = second compound 0.316 µM, first compound 0.316 µM
[16] = second compound 0.316 µM, first compound 1 µM
[17] = second compound 0.316 µM, first compound 3.16 µM
[18] = second compound 0.316 µM, first compound 10 µM
[19] = second compound 1 µM, first compound 0.0316 µM
[20] = second compound 1 µM, first compound 0.1 µM
[21] = second compound 1 µM, first compound 0.316 µM
[22] = second compound 1 µM, first compound 1 µM
[23] = second compound 1 µM, first compound 3.16 µM
[24] = second compound 1 µM, first compound 10 µM
[25] = second compound 3.16 µM, first compound 0.0316 µM
[26] = second compound 3.16 µM, first compound 0.1 µM
[27] = second compound 3.16 µM, first compound 0.316 µM
[28] = second compound 3.16 µM, first compound 1 µM
[29] = second compound 3.16 µM, first compound 3.16 µM
[30] = second compound 3.16 µM, first compound 10 µM
[31] = second compound 10 µM, first compound 0.0316 µM
[32] = second compound 10 µM, first compound 0.1 µM
[33] = second compound 10 µM, first compound 0.316 µM
[34] = second compound 10 µM, first compound 1 µM
[35] = second compound 10 µM, first compound 3.16 µM
[36] = second compound 10 µM, first compound 10 µM
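Further: spheroids exposed to agents for 7 days before readout.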
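Wherever viability, T/C is given: percent viability relative to DMSO vehicle control taken as 100%.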

COc1ncnc(C2CC2)c1-c1ncc2cnn(Cc3ccc(-c4nc(C(F)(F)F)cn4C(C)C)cc3)c2n1 + Cc1cnc(CNC(=O)c2c(=O)c3ccc(N4CCCN(C)CC4)nc3n3c2sc2ccccc23)cn1
IC50 (second compound 0.0316 µM): > 10000 nM | IC50 (second compound 0.1 µM): < 31.6 nM | IC50 (second compound 0.316 µM): < 31.6 nM | IC50 (second compound 1 µM): < 31.6 nM | IC50 (second compound 3.16 µM): < 31.6 nM | IC50 (second compound 10 µM): < 31.6 nM | viability, T/C [1]: 63.5% | viability, T/C [2]: 51.9% | viability, T/C [3]: 55.5% | viability, T/C [4]: 43.7% | viability, T/C [5]: 66% | viability, T/C [6]: 64.1% | viability, T/C [7]: 28.1% | viability, T/C [8]: 31.1% | viability, T/C [9]: 28.2% | viability, T/C [10]: 29.5% | viability, T/C [11]: 28.4% | viability, T/C [12]: 33.2% | viability, T/C [13]: 19.2% | viability, T/C [14]: 26.4% | viability, T/C [15]: 20.8% | viability, T/C [16]: 25.4% | viability, T/C [17]: 25.6% | viability, T/C [18]: 22.8% | viability, T/C [19]: 19.3% | viability, T/C [20]: 22.8% | viability, T/C [21]: 21.1% | viability, T/C [22]: 20.8% | viability, T/C [23]: 22.1% | viability, T/C [24]: 18% | viability, T/C [25]: 16.9% | viability, T/C [26]: 18.9% | viability, T/C [27]: 17.7% | viability, T/C [28]: 19.4% | viability, T/C [29]: 21.6% | viability, T/C [30]: 18.1% | viability, T/C [31]: 0.12% | viability, T/C [32]: 0.17% | viability, T/C [33]: 0.18% | viability, T/C [34]: 0.16% | viability, T/C [35]: 0.21% | viability, T/C [36]: 0.22%

Cc1[nH]c2ccccc2c1CCNCc1ccc(/C=C/C(=O)NO)cc1 + Cc1cnc(CNC(=O)c2c(=O)c3ccc(N4CCCN(C)CC4)nc3n3c2sc2ccccc23)cn1
IC50 (second compound 0.0316 µM): 7.25 nM | IC50 (second compound 0.1 µM): < 0.999 nM | IC50 (second compound 0.316 µM): < 0.999 nM | IC50 (second compound 1 µM): < 0.999 nM | IC50 (second compound 3.16 µM): < 0.999 nM | IC50 (second compound 10 µM): < 0.999 nM | viability, T/C (second compound 0.0316 µM, first compound 0.000999 µM): 83.2% | viability, T/C (second compound 0.0316 µM, first compound 0.00316 µM): 67.1% | viability, T/C (second compound 0.0316 µM, first compound 0.00999 µM): 44.2% | viability, T/C [1]: 17.7% | viability, T/C (second compound 0.0316 µM, first compound 0.0999 µM): 5.1% | viability, T/C [3]: 0.06% | viability, T/C (second compound 0.1 µM, first compound 0.000999 µM): 27.4% | viability, T/C (second compound 0.1 µM, first compound 0.00316 µM): 31.7% | viability, T/C (second compound 0.1 µM, first compound 0.00999 µM): 21.3% | viability, T/C [7]: 18.4% | viability, T/C (second compound 0.1 µM, first compound 0.0999 µM): 6.46% | viability, T/C [9]: 0.06% | viability, T/C (second compound 0.316 µM, first compound 0.000999 µM): 21.5% | viability, T/C (second compound 0.316 µM, first compound 0.00316 µM): 24.8% | viability, T/C (second compound 0.316 µM, first compound 0.00999 µM): 17.1% | viability, T/C [13]: 15.9% | viability, T/C (second compound 0.316 µM, first compound 0.0999 µM): 4.53% | viability, T/C [15]: 0.05% | viability, T/C (second compound 1 µM, first compound 0.000999 µM): 18.3% | viability, T/C (second compound 1 µM, first compound 0.00316 µM): 20.6% | viability, T/C (second compound 1 µM, first compound 0.00999 µM): 15.7% | viability, T/C [19]: 13.7% | viability, T/C (second compound 1 µM, first compound 0.0999 µM): 3.62% | viability, T/C [21]: 0.06% | viability, T/C (second compound 3.16 µM, first compound 0.000999 µM): 15.1% | viability, T/C (second compound 3.16 µM, first compound 0.00316 µM): 18.6% | viability, T/C (second compound 3.16 µM, first compound 0.00999 µM): 15.4% | viability, T/C [25]: 11.8% | viability, T/C (second compound 3.16 µM, first compound 0.0999 µM): 0.11% | viability, T/C [27]: 0.1% | viability, T/C (second compound 10 µM, first compound 0.000999 µM): 0.1% | viability, T/C (second compound 10 µM, first compound 0.00316 µM): 0.14% | viability, T/C (second compound 10 µM, first compound 0.00999 µM): 0.2% | viability, T/C [31]: 0.18% | viability, T/C (second compound 10 µM, first compound 0.0999 µM): 0.2% | viability, T/C [33]: 0.2%

O=C(NO)c1cnc(N2CCN(S(=O)(=O)c3ccc4ccccc4c3)CC2)nc1 + Cc1cnc(CNC(=O)c2c(=O)c3ccc(N4CCCN(C)CC4)nc3n3c2sc2ccccc23)cn1
IC50 (second compound 0.0316 µM): 53.3 nM | IC50 (second compound 0.1 µM): < 31.6 nM | IC50 (second compound 0.316 µM): < 31.6 nM | IC50 (second compound 1 µM): < 31.6 nM | IC50 (second compound 3.16 µM): < 31.6 nM | IC50 (second compound 10 µM): < 31.6 nM | viability, T/C [1]: 77.5% | viability, T/C [2]: 16.4% | viability, T/C [3]: 5.04% | viability, T/C [4]: 0.12% | viability, T/C [5]: 0.03% | viability, T/C [6]: 0.07% | viability, T/C [7]: 19.2% | viability, T/C [8]: 21.4% | viability, T/C [9]: 3.6% | viability, T/C [10]: 0.1% | viability, T/C [11]: 0.02% | viability, T/C [12]: 0.06% | viability, T/C [13]: 18.8% | viability, T/C [14]: 18.1% | viability, T/C [15]: 4.03% | viability, T/C [16]: 0.05% | viability, T/C [17]: 0.02% | viability, T/C [18]: 0.06% | viability, T/C [19]: 17.5% | viability, T/C [20]: 16.4% | viability, T/C [21]: 1.77% | viability, T/C [22]: 0.04% | viability, T/C [23]: 0.03% | viability, T/C [24]: 0.07% | viability, T/C [25]: 14.8% | viability, T/C [26]: 12.7% | viability, T/C [27]: 0.09% | viability, T/C [28]: 0.05% | viability, T/C [29]: 0.06% | viability, T/C [30]: 0.09% | viability, T/C [31]: 0.07% | viability, T/C [32]: 0.11% | viability, T/C [33]: 0.13% | viability, T/C [34]: 0.09% | viability, T/C [35]: 0.14% | viability, T/C [36]: 0.15%
